According to PubChem BioAssay (NCI):
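Test compounds were applied to cells in 96-well plates for 48 hours at 5 doses. TGI is the concentration that stops growth completely.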

Experiments:
Test in all cases: inhibition of tumour cell growth, NCI panel, 48 h
K-562 leukemia = system: K-562 leukemia
COLO 205 colon = system: COLO 205 colon
NCI-H226 lung = system: NCI-H226 lung
HCT-116 colon = system: HCT-116 colon
HL-60(TB) leukemia = system: HL-60(TB) leukemia
SNB-19 CNS = system: SNB-19 CNS
MALME-3M melanoma = system: MALME-3M melanoma
NCI-H460 lung = system: NCI-H460 lung
HCT-15 colon = system: HCT-15 colon
SNB-75 CNS = system: SNB-75 CNS
TK-10 renal = system: TK-10 renal
RXF 393 renal = system: RXF 393 renal
SF-268 CNS = system: SF-268 CNS
KM12 colon = system: KM12 colon

Compound	TGI (K-562 leukemia)	TGI (COLO 205 colon)	TGI (NCI-H226 lung)	TGI (HCT-116 colon)	TGI (HL-60(TB) leukemia)	TGI (SNB-19 CNS)	TGI (MALME-3M melanoma)	TGI (NCI-H460 lung)	TGI (HCT-15 colon)	TGI (SNB-75 CNS)	TGI (TK-10 renal)	TGI (RXF 393 renal)	TGI (SF-268 CNS)	TGI (KM12 colon)
COc1cc(-c2coc3c(OC)c(OC4OC(CO)C(O)C(O)C4O)c(OC)cc3c2=O)cc(OC)c1C (stereo unspecified)	> 70.4 µM	> 54.2 µM	68.1 µM	> 100 µM	> 100 µM	28.6 µM	29.7 µM	> 70.1 µM	19.6 µM	21.6 µM	> 70.3 µM	8.85 µM	21.5 µM	28.3 µM
COC1OC(CO)C(O)C(OC(=O)c2cc(O)c(O)c(O)c2)C1OC(=O)c1cc(O)c(O)c(O)c1 (stereo unspecified)	> 100 µM	> 100 µM	> 100 µM	> 100 µM	> 100 µM	> 100 µM	> 100 µM	> 100 µM	> 100 µM	> 100 µM	> 100 µM	> 100 µM	> 100 µM	> 100 µM
O=C1/C(=C\c2cccc(Oc3ccccc3)c2)SC(c2ccccc2)N1c1ccc(Cl)cc1 (stereo unspecified)	> 90.8 µM	> 80.9 µM	> 100 µM	> 100 µM	> 100 µM	> 100 µM	> 100 µM	> 100 µM	> 100 µM	> 100 µM	> 100 µM	> 100 µM	> 100 µM	> 100 µM
CC(C)(C)[C@H]1CO[C@]2(C)[C@@H]3C[C@@H]3C(=O)N12	> 100 µM	> 100 µM	> 100 µM	> 100 µM	> 100 µM	> 100 µM	> 100 µM	> 100 µM	> 100 µM	> 100 µM	> 100 µM	> 100 µM	> 100 µM	> 100 µM
Cc1cc2oc(=O)[nH]c(=S)c2c(C)c1C	> 100 µM	> 100 µM	> 100 µM	> 100 µM	> 100 µM	> 100 µM	> 100 µM	> 100 µM	> 100 µM	> 100 µM	> 100 µM	> 100 µM	> 100 µM	> 100 µM
C/C=C(/C)C(=O)O[C@H]1C(C)=C[C@]23C(=O)[C@@H](C=C(COC(C)=O)[C@@H](O)[C@]12O)[C@H]1[C@@H](C[C@H]3C)[C@@]1(C)OC(=O)/C(C)=C\C	6.81 µM	3.8 µM	7.52 µM	9.77 µM	5.67 µM	5.92 µM	3.89 µM	4.09 µM	7.17 µM	4.53 µM	7.69 µM	5.25 µM	4.73 µM	4.06 µM
COC[n+]1cc2cc(OC)c(OC)cc2c2ccc3cc(OC)c(OC)cc3c21	> 100 µM	> 100 µM	> 100 µM	> 100 µM	> 100 µM	> 100 µM	> 100 µM	> 100 µM	> 100 µM	> 100 µM	> 100 µM	> 100 µM	> 100 µM	> 100 µM
O=C1CC2(CCC(O)(c3ccc(Cl)cc3)C(C(=O)c3ccc(Cl)cc3)C2)C(=O)c2ccccc2N1 (stereo unspecified)	> 100 µM	> 56.5 µM	> 52.5 µM	> 100 µM	> 31.6 µM	6.71 µM	> 68.4 µM	> 100 µM	> 100 µM	3.82 µM	39.2 µM	22.3 µM	17 µM	> 100 µM
c1ccc(CCN(Cc2nc3ccccc3[nH]2)Cc2nc3ccccc3[nH]2)cc1	12.9 µM	31.2 µM	> 68.5 µM	17 µM	7.8 µM	> 31.6 µM	45.7 µM	28.3 µM	22.1 µM	36.7 µM	35.7 µM	28.9 µM	33.6 µM	27.3 µM
O=C1CCC2SC1CCC2=O	> 100 µM	> 100 µM	> 100 µM	> 100 µM	> 100 µM	> 100 µM	> 100 µM	> 100 µM	> 100 µM	> 100 µM	> 100 µM	> 100 µM	> 100 µM	> 100 µM
c1ccc2sc(C3(N4CCCCC4)CCCC3)cc2c1	23.9 µM	19.8 µM	13.5 µM	19.9 µM	19.1 µM	29.2 µM	29.1 µM	20.7 µM	21.6 µM	30.6 µM	28.5 µM	30.3 µM	24.3 µM	23.4 µM
O=C1CCCc2cc3c(cc21)CCC3C(=O)O (stereo unspecified)	> 100 µM	> 100 µM	> 100 µM	> 100 µM	> 100 µM	> 100 µM	> 100 µM	> 100 µM	> 100 µM	> 100 µM	> 100 µM	> 100 µM	> 100 µM	> 100 µM
N#CS/C(Cl)=C(/C(Cl)=C(Cl)Cl)[N+](=O)[O-]	> 100 µM	> 100 µM	> 100 µM	75.7 µM	> 100 µM	29.3 µM	47.1 µM	> 100 µM	45.9 µM	> 100 µM	> 100 µM	> 100 µM	> 100 µM	> 100 µM
COC(=O)c1c(C(=O)OC)c2cc(C(=O)c3ccccc3)ccn2c1Cl	> 100 µM	> 100 µM	64.7 µM	> 100 µM	54.2 µM	> 100 µM	> 100 µM	> 100 µM	> 100 µM	55.4 µM	> 100 µM	85 µM	> 100 µM	72.8 µM
